Laboratory results taken from the supplement of paper PMC10307832.

Legend:
Experiment in all cases: relative viability (nuclei count vs DMSO), 5 days (fraction); higher = more cells survive
TGX 221 + AZD7762 = compound: CC1=CN2C(=O)C=C(N=C2C(=C1)C(C)NC3=CC=CC=C3)N4CCOCC4 [TGX 221] + NC(=O)Nc1cc(-c2cccc(F)c2)sc1C(=O)N[C@H]1CCCNC1 [AZD7762] (partner 0.2 µM)
Summary of the method: (§1)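 Relative viability equals treated-well nuclei counts divided by vehicle-well nuclei counts. Counts came from 4× images of lung cancer cell lines grown in 1536-well plates for 5 days after pin-tool dosing on the day after seeding. Dosing used one drug alone or a fixed anchor-drug dose plus five library-drug doses (not always all listed) in √10 steps, and values are medians of duplicate plates.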

[1] = compound: C1=CC=C(C(=C1)C2=CC=C(C=C2)C3=CSC4=C3C(=C(C(=O)N4)C#N)O)O + Cc1nc(Nc2ncc(C(=O)Nc3c(C)cccc3Cl)s2)cc(N2CCN(CCO)CC2)n1 [Dasatinib] (partner 0.075 µM)
Summary of the method: as §1

TGX 221 + OSI-027 = compound: CC1=CN2C(=O)C=C(N=C2C(=C1)C(C)NC3=CC=CC=C3)N4CCOCC4 [TGX 221] + COc1cccc2cc(-c3nc([C@H]4CC[C@H](C(=O)O)CC4)n4ncnc(N)c34)[nH]c12 [OSI-027] (partner 0.5 µM)
Summary of the method: as §1

[2] = compound: C1=CC=C(C(=C1)C2=CC=C(C=C2)C3=CSC4=C3C(=C(C(=O)N4)C#N)O)O + CC(=O)c1c(C)c2cnc(Nc3ccc(N4CCNCC4)cn3)nc2n(C2CCCC2)c1=O [Palbociclib] (partner 0.5 µM)
Summary of the method: as §1

Cell Line	relative viability (TGX 221 + AZD7762; first compound 0.08 µM)	relative viability (TGX 221 + AZD7762; first compound 0.253 µM)	relative viability (TGX 221 + AZD7762; first compound 0.8 µM)	relative viability (TGX 221 + AZD7762; first compound 2.53 µM)	relative viability (TGX 221 + AZD7762; first compound 8 µM)	relative viability ([1]; first compound 0.08 µM)	relative viability ([1]; first compound 0.253 µM)	relative viability ([1]; first compound 2.53 µM)	relative viability ([1]; first compound 8 µM)	relative viability (TGX 221 + OSI-027; first compound 0.08 µM)	relative viability (TGX 221 + OSI-027; first compound 0.253 µM)	relative viability (TGX 221 + OSI-027; first compound 0.8 µM)	relative viability (TGX 221 + OSI-027; first compound 2.53 µM)	relative viability (TGX 221 + OSI-027; first compound 8 µM)	relative viability ([2]; first compound 0.08 µM)	relative viability ([2]; first compound 0.253 µM)	relative viability ([2]; first compound 0.8 µM)	relative viability ([2]; first compound 2.53 µM)	relative viability ([2]; first compound 8 µM)	relative viability ([1]; first compound 0.8 µM)
NCI-H1915	0.655	0.665	0.665	0.596	0.712	0.335	0.344	0.314	0.34	0.575	0.601	0.63	0.472	0.619	0.587	0.558	0.554	0.756	0.515	–
EPLC-272H	0.24	0.222	0.161	0.171	0.197	0.311	0.306	0.407	0.303	0.273	0.28	0.244	0.293	0.316	0.329	–	0.281	0.336	0.304	0.339
NCI-H2087	1.04	1.23	1.37	1.2	1.21	0.67	0.878	0.925	0.703	0.579	0.481	0.574	0.465	0.622	0.223	0.228	0.199	0.256	0.205	0.969
A-427	0.728	0.712	0.8	0.762	0.698	0.645	0.67	0.658	0.619	0.53	0.491	0.506	0.473	0.448	0.551	0.535	0.504	0.553	0.543	0.716
NCI-H460	0.564	0.632	0.559	0.665	0.655	0.37	0.406	0.577	0.506	0.666	0.566	0.713	0.56	0.504	0.15	0.149	0.15	0.101	0.158	0.485
NCI-H23	0.277	0.213	0.269	0.217	0.201	0.654	0.677	1.01	0.604	0.506	0.613	0.594	0.456	0.517	0.445	0.512	0.593	0.51	0.467	0.755
NCI-H1650	–	–	–	–	–	0.253	0.393	0.322	0.318	0.648	0.55	0.737	0.661	0.529	0.23	0.332	0.317	0.31	0.31	0.349
SW 1573	–	–	–	–	–	0.498	0.618	0.666	0.369	0.511	0.569	0.525	0.513	0.494	0.366	0.378	0.447	0.396	0.321	0.662
NCI-H1703	0.129	0.12	0.12	0.116	0.146	–	–	–	–	–	–	–	–	–	–	–	–	–	–	–
SK-MES-1	–	–	–	–	–	0.391	0.334	0.274	0.359	0.552	0.53	0.592	0.532	0.473	0.296	0.305	0.306	0.305	0.315	0.309
NCI-H2023	–	–	–	–	–	0.444	0.521	0.55	0.433	0.324	0.328	0.441	0.322	0.275	0.334	0.35	0.324	0.41	0.376	0.648
COR-L 105	–	–	–	–	–	0.337	0.301	0.302	0.309	0.793	0.612	0.759	1.03	0.627	0.431	0.403	0.419	0.401	0.42	0.272
NCI-H596	1.05	0.904	1.11	0.942	1.03	0.568	0.678	0.557	0.476	0.748	0.688	0.803	0.487	0.693	–	–	–	–	–	0.713
NCI-H1623	–	–	–	–	–	0.484	0.548	0.603	0.546	0.44	0.402	0.423	0.389	0.477	–	–	–	–	–	0.496
NCI-H520	–	–	–	–	–	0.193	0.179	0.202	0.212	0.212	0.165	0.227	0.188	0.195	0.235	0.212	0.223	0.226	0.206	0.258
NCI-H1648	–	0.784	0.793	0.628	0.672	–	–	–	–	0.268	–	0.256	0.237	0.254	–	0.282	0.319	0.261	0.274	–
NCI-H1563	–	–	–	–	–	0.469	0.553	0.439	0.477	0.796	0.653	0.69	0.754	0.633	–	–	–	–	–	0.529
NCI-H2228	–	–	–	–	–	0.511	0.476	0.606	0.475	0.654	0.522	0.638	0.453	0.463	0.687	0.6	0.747	0.759	0.6	0.567
NCI-H2009	–	–	–	–	–	0.322	0.267	0.302	0.29	0.543	0.583	0.574	0.569	0.49	0.19	0.196	0.174	0.22	0.228	0.322
HCC-44	0.992	1.04	1.02	1.1	1.09	–	–	–	–	–	0.417	0.51	0.543	0.41	1.08	1.05	0.995	0.979	0.964	–
COR-L23	–	–	–	–	–	0.492	0.48	0.548	0.272	0.713	0.777	0.815	0.835	0.715	0.297	0.384	0.374	0.323	0.243	0.61
